Test results published in US20120028897A1, “METHODS AND COMPOSITIONS FOR THE TREATMENT OF FLUID RETENTION DISORDERS” (priority 2008, published 2012).

Columns and labels:
[1] = molecular target: T1, GC-C receptor, GC-C-expressing T84 cell line (Homo sapiens, UniProt P25092); test: T84 cell cyclic GMP bioassay; format: cell-based
T1 construct: measuring cyclic GMP synthesis in the GC-C-expressing T84 cell line; endogenous in cells; host or cells: T84 colon carcinoma cells
Procedure: (§1) Bioassay of huUgnA-like activity. The concentration of huUgnA-like bioactivity in infused peptide solutions and in urine collected during experiments was measured using a T84 cell-based bioassay, as described previously. T84 cells are a colon carcinoma cell line that increases cyclic GMP production in response to GC-C receptor agonists such as Ugn, Gn and ST core peptide. T84 cells were grown to near confluence in 12 well culture clusters, and then incubated with unknowns or standard concentrations of huUgnA. Standards or urine samples were diluted into bioassay medium (1 mM 3-isobutyl-1-methylxanthine, 0.03 mM phenol red, 137 mM NaCl, 5.4 mM KCl, 0.25 mM Na2HPO4, 0.44 mM KH2PO4, 1.3 mM CaCl2, 1.0 mM MgSO4, 4.2 mM NaHCO3, 10 mM HEPES buffered at pH 7.0) and the pH was adjusted to 7.0, if required, using the phenol red indicator dye as a guide. This pH adjustment was necessary, as it is well-established that the response of T84 cells to UGn is highly pH dependent. The broad spectrum phosphodiesterase inhibitor (isobutyl methylxanthine) was included to prevent degradation of cyclic GMP. After 30 min, the cells were lysed and cyclic GMP levels measured by radioimmunoassay (Biomedical Technologies Inc Stoughton Mass.). Standards and unknowns were assayed in triplicate. […]

[2] = Urinary excretion and isomer identity after iv infusion (T84 bioassay and LC-MS of urine); format: in vivo, rat; details: for stability of identity and properties in vivo: infused rats; for GC-C stimulating activity recovered in urine: T84 bioassay
Procedure: FIG. 3A is a graph showing urinary excretion of “UgnA like” activity as a function of time in animals treated with the either huUgnA (filled symbols) or huUgnB (open symbols). huUgn was infused into an anesthetized rat during the period indicated by the horizontal bar. […] A sample of the urine acquired during each clearance period was evaluated for activity in the T84 cell bioassay. The resulting cyclic GMP responses were then converted to apparent recoveries of “UgnA-like” peptide by interpolation on a huUgnA standard curve (constructed as in FIG. 1A). Appropriate dilutions were chosen to ensure that the activity in each sample would not saturate this assay.
After post-surgical equilibration (−60 min) and three 20 min control clearance periods, huUgnA or B was infused into the jugular vein at 10 μl/min over a 60 min period, followed by a return to isotonic saline for the remainder of the experiment. The infused doses of huUgnA were 12, 25, 50, 100, or 200 nmol/kg BW in a total of 38 rats; huUgnB doses were 9, 18, 35, 70, and 140 nmol/kg BW in 35 rats. A UgnA mimetic, E. coli STh (ST-core), was infused into a third group of 32 rats at doses of 17, 32, 66, 133, and 266 nmol/kg. Renal excretory responses to these infusions were slow to develop and long lasting, so clearance periods were continued for 2-3 hr after the termination of the peptide infusion. This protracted time course limited protocols to one dose of one peptide in each rat. A control group of 10 rats received isotonic saline at 10 μl/min in place of the peptide infusion, but was otherwise treated in the same way as the experimental groups.
HPLC analysis and mass spectroscopy of Ugn isomers. The integrity and purity of huUgnA and B isomer preparations were confirmed by liquid chromatography/mass spectroscopy (LC-MS) analysis. The two Ugn isomers have different retention times on a reverse phase HPLC column (FIG. 1, dashed trace; huUgnA elutes ˜0.35 minutes before huUgnB). Separations were performed on a Hypersil Gold AQ 2.1×50 mm column from Thermo Fisher Scientific Inc (Waltham, Mass.) equilibrated in 98% buffer A (0.1% formic acid), 2% buffer B (85:10:5 Acetonitrile/Isopropyl Alcohol/5 mM NH4OAc pH 5.8) with a flow rate of 0.4 ml/min on an Acquity HPLC system. After a 2.5 minute wash with the same buffers, peptides were eluted with a linear gradient of 2% buffer B to 80% buffer B over 25 minutes and held for one minute before an increase to 90% B over 2 minutes to wash the column, followed by a return to 2% buffer B over 3 minutes.
Peptide masses were determined using a Micromass Q-T of II instrument equipped with an electrospray ionization (ESI) source operating in positive ion mode. The instrument was programmed to scan in the mass range of m/z 100 to 1800. Molecular weight predictions and data analysis were carried out with MassLynx version 4.0 software. […] were injected directly without any sample preparation using an Acquity HPLC system connected in line with the Q-T of II.
as §1, with “dependent.” for “dependent. The broad spectrum phosphodiesterase inhibitor (isobutyl methylxanthine) was included to prevent degradation of cyclic GMP. After 30 min, the cells were lysed and cyclic GMP levels measured by radioimmunoassay (Biomedical Technologies Inc Stoughton Mass.). Standards and unknowns were assayed in triplicate.”

[3] = system: Mice; test: Natriuretic response in mice; format: in vivo, mouse

T1 sequence (P25092 24-1073): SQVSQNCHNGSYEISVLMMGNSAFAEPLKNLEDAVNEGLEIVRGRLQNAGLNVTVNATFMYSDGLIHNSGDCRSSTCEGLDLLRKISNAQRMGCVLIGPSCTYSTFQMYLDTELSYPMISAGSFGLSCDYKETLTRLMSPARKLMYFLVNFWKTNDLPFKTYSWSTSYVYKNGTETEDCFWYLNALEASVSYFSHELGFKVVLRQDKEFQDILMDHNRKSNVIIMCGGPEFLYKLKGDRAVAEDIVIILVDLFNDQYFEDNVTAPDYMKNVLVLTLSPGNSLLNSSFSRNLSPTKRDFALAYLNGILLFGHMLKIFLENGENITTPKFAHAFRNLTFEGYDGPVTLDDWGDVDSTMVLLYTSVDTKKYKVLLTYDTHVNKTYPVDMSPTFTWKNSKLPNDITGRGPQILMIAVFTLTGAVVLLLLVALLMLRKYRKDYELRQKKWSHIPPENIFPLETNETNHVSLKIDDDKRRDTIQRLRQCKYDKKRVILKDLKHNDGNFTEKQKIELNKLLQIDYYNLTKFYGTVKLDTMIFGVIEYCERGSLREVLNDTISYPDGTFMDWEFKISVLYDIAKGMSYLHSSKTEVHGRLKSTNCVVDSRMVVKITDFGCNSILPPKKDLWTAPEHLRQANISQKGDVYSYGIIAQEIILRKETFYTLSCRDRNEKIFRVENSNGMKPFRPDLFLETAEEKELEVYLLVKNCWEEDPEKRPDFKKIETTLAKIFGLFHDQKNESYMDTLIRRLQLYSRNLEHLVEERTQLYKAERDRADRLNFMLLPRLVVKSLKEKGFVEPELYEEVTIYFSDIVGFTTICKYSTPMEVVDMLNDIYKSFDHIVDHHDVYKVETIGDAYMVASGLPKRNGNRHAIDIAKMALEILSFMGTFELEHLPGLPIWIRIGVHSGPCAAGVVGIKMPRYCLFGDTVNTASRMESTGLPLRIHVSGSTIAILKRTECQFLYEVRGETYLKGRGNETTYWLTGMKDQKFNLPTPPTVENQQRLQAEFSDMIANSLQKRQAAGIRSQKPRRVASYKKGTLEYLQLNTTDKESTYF

Row | Structure (SMILES) | T84 cell cGMP response on co-application of huUgnA and B ([1]; 25 nM huUgnA with 180 nM huUgnB (FIG. 2B)) | potency in activating cyclic GMP synthesis, fold less potent than the A isoform ([1]; GC-C-expressing T84 cell line) | stability of identity and properties in vivo [2] | isomerization in vivo, LC-MS of urine at peak peptide excretion ([2]; iv infusion, anesthetized rat) | GC-C stimulating activity recovered in urine ([2]; iv infusion, anesthetized rat) | natriuretic response [3] | return of urinary GC-C stimulating activity to baseline after infusion was terminated ([2]; iv infusion, anesthetized rat) | time to appearance of GC-C stimulating activity in urine from start of infusion ([2]; iv infusion, anesthetized rat) [min]
1 | CC(C)C[C@H](NC(=O)[C@@H]1CSSC[C@@H]2NC(=O)[C@H](CC(C)C)NC(=O)[C@H](CCC(=O)O)NC(=O)[C@@H](NC(=O)[C@H](CC(=O)O)NC(=O)[C@H](CC(=O)O)NC(=O)[C@@H](N)CC(N)=O)CSSC[C@H](NC(=O)[C@H](C)NC(=O)[C@H](C(C)C)NC(=O)[C@H](CC(N)=O)NC(=O)[C@H](C(C)C)NC2=O)C(=O)N[C@@H]([C@@H](C)O)C(=O)NCC(=O)N1)C(=O)O (single isomer, unassigned) [huUgnB, Asn Asp Asp Cys Glu Leu Cys Val Asn Val Ala Cys Thr Gly Cys Leu] | not different from those evoked by huUgnA alone | more than 100 fold | sufficiently stable for use in acute animal studies | a clearly discernable huUgnB signal along with a barely detectible huUgnA signal | very little | exhibit a natriuretic response | – | –
2 | CC(C)C[C@H](NC(=O)[C@@H]1CSSC[C@@H]2NC(=O)[C@H](CC(C)C)NC(=O)[C@H](CCC(=O)O)NC(=O)[C@@H](NC(=O)[C@H](CC(=O)O)NC(=O)[C@H](CC(=O)O)NC(=O)[C@@H](N)CC(N)=O)CSSC[C@H](NC(=O)[C@H](C)NC(=O)[C@H](C(C)C)NC(=O)[C@H](CC(N)=O)NC(=O)[C@H](C(C)C)NC2=O)C(=O)N[C@@H]([C@@H](C)O)C(=O)NCC(=O)N1)C(=O)O (single isomer, unassigned) [huUgnA, Asn Asp Asp Cys Glu Leu Cys Val Asn Val Ala Cys Thr Gly Cys Leu, reference compound] | – | – | sufficiently stable for use in acute animal studies | essentially no isomerization had occurred | a significant amount | – | within an hour | ≤ 20
